Data as given in ChEMBL document CHEMBL5352389, “Design and synthesis of chromone-based monoamine oxidase B inhibitors with improved drug-like properties” (Eur J Med Chem, 2022).

Tests used:
[1] = target: T1, Amine oxidase [flavin-containing] A (Homo sapiens, UniProt P21397); assay: Inhibition of human MAO-A using p-tyramine as substrate at 10 uM incubated for 15 mins by Amplex red and horseradish peroxidase based fluorescence assay; conditions: 0.25 h
T1 sequence (P21397 whole entry): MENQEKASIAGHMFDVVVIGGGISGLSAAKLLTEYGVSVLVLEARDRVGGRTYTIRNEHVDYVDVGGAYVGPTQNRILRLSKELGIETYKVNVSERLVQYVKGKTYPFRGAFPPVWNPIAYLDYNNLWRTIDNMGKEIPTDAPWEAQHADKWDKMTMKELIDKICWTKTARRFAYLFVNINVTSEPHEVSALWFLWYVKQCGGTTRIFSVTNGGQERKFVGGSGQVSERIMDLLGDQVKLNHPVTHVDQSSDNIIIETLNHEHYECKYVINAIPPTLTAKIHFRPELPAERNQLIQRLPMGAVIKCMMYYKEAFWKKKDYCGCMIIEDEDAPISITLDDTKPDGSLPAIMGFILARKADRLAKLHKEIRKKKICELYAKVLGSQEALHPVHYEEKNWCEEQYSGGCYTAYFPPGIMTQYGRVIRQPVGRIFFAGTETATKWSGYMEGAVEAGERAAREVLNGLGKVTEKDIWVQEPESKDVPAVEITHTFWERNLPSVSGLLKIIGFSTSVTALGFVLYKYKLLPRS

[2] = target: T2, Amine oxidase [flavin-containing] B (Homo sapiens, UniProt P27338); assay: Inhibition of human MAO-B using p-tyramine as substrate incubated for 15 mins by Amplex red and horseradish peroxidase based fluorescence assay
T2 sequence (P27338 whole entry): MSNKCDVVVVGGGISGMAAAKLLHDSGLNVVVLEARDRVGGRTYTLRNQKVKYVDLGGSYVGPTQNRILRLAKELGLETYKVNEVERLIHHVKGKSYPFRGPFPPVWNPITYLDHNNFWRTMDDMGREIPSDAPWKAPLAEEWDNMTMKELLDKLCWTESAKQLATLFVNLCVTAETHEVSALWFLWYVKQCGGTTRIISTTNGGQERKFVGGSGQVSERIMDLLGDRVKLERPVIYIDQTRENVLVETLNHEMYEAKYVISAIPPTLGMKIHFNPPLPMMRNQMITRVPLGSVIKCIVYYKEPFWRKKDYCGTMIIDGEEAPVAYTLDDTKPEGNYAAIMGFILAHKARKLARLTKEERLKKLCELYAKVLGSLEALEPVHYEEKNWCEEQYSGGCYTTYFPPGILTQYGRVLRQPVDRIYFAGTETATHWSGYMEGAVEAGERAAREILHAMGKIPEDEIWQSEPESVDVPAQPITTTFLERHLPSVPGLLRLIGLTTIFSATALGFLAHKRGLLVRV

[3] = organism: Homo sapiens; assay: Selectivity index, ratio of IC50 for human MAO-A to IC50 for human MAO-B
[4] = tested on: SH-SY5Y; assay: Iron(III) chelating activity in FeNTA-treated human SH-SY5Y cells assessed as cell viability by measuring lysosomal activity at 1 to 10 uM measured after 24 hrs by neutral red uptake assay (reference value: 66.5 +/- […] %); assay type: cell-based; conditions: dose 1-10 µM
[5] = Cytotoxicity against human SH-SY5Y cells assessed as cell viability by measuring metabolic activity upto 10 uM incubated for 24 hrs by resazurin dye based assay relative to control; assay type: toxicity; conditions: read-out: Activity
[6] = Cytotoxicity against human SH-SY5Y cells assessed as cell viability by measuring lysosomal activity upto 10 uM incubated for 24 hrs by neutral red uptake assay relative to control; assay type: toxicity, cell-based; conditions: read-out: Activity
[7] = target: T2, Amine oxidase [flavin-containing] B; assay: Inhibition of human MAO-B using p-tyramine as substrate at 10 uM incubated for 15 mins by Amplex red and horseradish peroxidase based fluorescence assay; conditions: 0.25 h
[8] = target: T1, Amine oxidase [flavin-containing] A; assay: Inhibition of human MAO-A using p-tyramine as substrate incubated for 15 mins by Amplex red and horseradish peroxidase based fluorescence assay
[9] = target: T3, MAO-A (amine oxidase [flavin-containing] A) (Homo sapiens, UniProt P21397); assay: Inhibition of human MAO-A using p-tyramine as substrate incubated for 15 mins by Amplex red and horseradish peroxidase based fluorescence assay relative to control; conditions: human MAO-A enzyme, probe p-tyramine
T3 sequence (P21397 whole entry): T1 sequence (P21397 whole entry)

[10] = tested on: SH-SY5Y; assay: Iron(III) chelating activity in FeNTA-treated human SH-SY5Y cells assessed as cell viability by measuring lysosomal activity at 10 uM measured after 24 hrs by neutral red uptake assay (reference value: 66.5 +/- […] %); assay type: cell-based

SMILES: Cc1ccc(NC(=O)c2coc3ccc(O)cc3c2=O)cc1
- inhibition (INH) [1]: Not Active
- IC50 [2]: 344 nM
- Ratio IC50 [3]: > 29

SMILES: O=C(Nc1ccc(Cl)cc1)c1coc2cccc(O)c2c1=O
- Activity [4]: 74.4%
- inhibition (INH) [1]: Not Active
- viability at 24 h, up to 10 µM [5]: ≥ 94.4%
- viability at 24 h, up to 10 µM [6]: ≥ 94.4%
- IC50 [2]: 8.3 nM
- Ratio IC50 [3]: > 1200

SMILES: COc1ccc2occ(C(=O)Nc3cccc(Cl)c3)c(=O)c2c1
- inhibition (INH) [1]: Not Active
- viability at 24 h, up to 10 µM [5]: ≥ 94.4%
- viability at 24 h, up to 10 µM [6]: ≥ 94.4%
- IC50 [2]: 6.8 nM
- Ratio IC50 [3]: > 1470

SMILES: COc1ccc2oc(C(=O)Nc3ccccc3)cc(=O)c2c1
- inhibition (INH) [1]: Not Active
- inhibition (INH) [7]: Not Active

SMILES: COc1ccc2oc(C(=O)Nc3ccc(O)cc3)cc(=O)c2c1
- inhibition (INH) [1]: Not Active
- inhibition (INH) [7]: Not Active

SMILES: O=C(Nc1ccccc1)c1coc2ccc(O)cc2c1=O
- inhibition (INH) [1]: Not Active
- IC50 [2]: 240 nM
- Ratio IC50 [3]: > 42

SMILES: O=C(Nc1ccc(Cl)cc1)c1coc2ccc(O)cc2c1=O
- IC50 [2]: 97.2 nM
- IC50 [8]: 6190 nM
- Ratio IC50 [3]: 64

SMILES: COc1ccc2occ(C(=O)Nc3ccc(C)c(C)c3)c(=O)c2c1
- inhibition (INH) [1]: Not Active
- IC50 [2]: 28.4 nM
- Ratio IC50 [3]: > 352

SMILES: C[C@H](NCc1ccc(OCc2cccc(F)c2)cc1)C(N)=O [SAFINAMIDE]
- inhibition at 0.25 h [9]: 23.7%

SMILES: O=C(Nc1ccc(O)cc1)c1coc2cccc(O)c2c1=O
- inhibition (INH) [1]: Not Active
- IC50 [2]: 598 nM
- Ratio IC50 [3]: > 17

SMILES: Cc1ccc(NC(=O)c2coc3ccc(O)cc3c2=O)cc1C
- inhibition (INH) [1]: Not Active
- IC50 [2]: 262 nM
- Ratio IC50 [3]: > 38

SMILES: O=C(Nc1ccccc1)c1coc2cccc(O)c2c1=O
- inhibition (INH) [1]: Not Active
- Activity [10]: 74.4%
- viability at 24 h, up to 10 µM [5]: ≥ 94.4%
- viability at 24 h, up to 10 µM [6]: ≥ 94.4%
- IC50 [2]: 13 nM
- Ratio IC50 [3]: > 769

SMILES: COc1ccc2occ(C(=O)Nc3ccc(O)cc3)c(=O)c2c1
- inhibition (INH) [1]: Not Active
- Ratio IC50 [3]: > 15

SMILES: COc1ccc2oc(C(=O)Nc3ccc(C)cc3)cc(=O)c2c1
- IC50 [8]: 607 nM
- inhibition (INH) [7]: Not Active
- Ratio IC50 [3]: > 0.061

SMILES: COc1ccc2occ(C(=O)Nc3ccc(C)cc3)c(=O)c2c1
- inhibition (INH) [1]: Not Active
- Ratio IC50 [3]: > 48

SMILES: O=C(Nc1cccc(Cl)c1)c1cc(=O)c2cc(O)ccc2o1
- IC50 [2]: 68.9 nM
- IC50 [8]: 9000 nM
- Ratio IC50 [3]: 130

SMILES: COc1ccc2oc(C(=O)Nc3ccc(C)c(C)c3)cc(=O)c2c1
- inhibition (INH) [1]: Not Active
- inhibition (INH) [7]: Not Active

SMILES: COc1ccc2oc(C(=O)Nc3cccc(Cl)c3)cc(=O)c2c1
- inhibition (INH) [1]: Not Active
- inhibition (INH) [7]: Not Active

SMILES: O=C(Nc1ccc(Cl)cc1)c1cc(=O)c2cc(O)ccc2o1
- inhibition (INH) [1]: Not Active
- viability at 24 h, up to 10 µM [5]: ≥ 94.4%
- viability at 24 h, up to 10 µM [6]: ≥ 94.4%
- IC50 [2]: 14.3 nM
- Ratio IC50 [3]: > 700

SMILES: Cc1ccc(NC(=O)c2coc3cccc(O)c3c2=O)cc1
- Activity [4]: 74.4%
- inhibition (INH) [1]: Not Active
- viability at 24 h, up to 10 µM [5]: ≥ 94.4%
- viability at 24 h, up to 10 µM [6]: ≥ 94.4%
- IC50 [2]: 15.7 nM
- Ratio IC50 [3]: > 637

SMILES: O=C(Nc1ccccc1)c1cc(=O)c2cc(O)ccc2o1
- inhibition (INH) [1]: Not Active
- IC50 [2]: 31.3 nM
- Ratio IC50 [3]: > 319

SMILES: COc1ccc2oc(C(=O)Nc3ccc(Cl)cc3)cc(=O)c2c1
- inhibition (INH) [1]: Not Active
- inhibition (INH) [7]: Not Active

SMILES: COc1ccc2occ(C(=O)Nc3ccc(Cl)cc3)c(=O)c2c1
- inhibition (INH) [1]: Not Active
- viability at 24 h, up to 10 µM [5]: ≥ 94.4%
- viability at 24 h, up to 10 µM [6]: ≥ 94.4%
- Ratio IC50 [3]: > 970

SMILES: O=C(Nc1ccc(O)cc1)c1coc2ccc(O)cc2c1=O
- inhibition (INH) [1]: Not Active
- IC50 [2]: 4830 nM
- Ratio IC50 [3]: > 2.1

SMILES: O=C(Nc1cccc(Cl)c1)c1coc2ccc(O)cc2c1=O
- inhibition (INH) [1]: Not Active
- IC50 [2]: 29.8 nM
- Ratio IC50 [3]: > 336

SMILES: COc1ccc2occ(C(=O)Nc3ccccc3)c(=O)c2c1
- inhibition (INH) [1]: Not Active
- Ratio IC50 [3]: > 239

SMILES: Cc1ccc(NC(=O)c2cc(=O)c3cc(O)ccc3o2)cc1C
- IC50 [2]: 29.1 nM
- IC50 [8]: 3370 nM
- Ratio IC50 [3]: 116

SMILES: O=C(Nc1cccc(Cl)c1)c1coc2cccc(O)c2c1=O
- Activity [4]: 74.4%
- inhibition (INH) [1]: Not Active
- viability at 24 h, up to 10 µM [5]: ≥ 94.4%
- viability at 24 h, up to 10 µM [6]: ≥ 94.4%
- IC50 [2]: 25 nM
- Ratio IC50 [3]: > 400

SMILES: O=C(Nc1ccc(O)cc1)c1cc(=O)c2cc(O)ccc2o1
- inhibition (INH) [1]: Not Active
- IC50 [2]: 1030 nM
- Ratio IC50 [3]: > 9.7

SMILES: Cc1ccc(NC(=O)c2coc3cccc(O)c3c2=O)cc1C
- Activity [4]: 74.4%
- inhibition (INH) [1]: Not Active
- viability at 24 h, up to 10 µM [5]: ≥ 94.4%
- viability at 24 h, up to 10 µM [6]: ≥ 94.4%
- IC50 [2]: 15.4 nM
- Ratio IC50 [3]: > 649

SMILES: Cc1ccc(NC(=O)c2cc(=O)c3cc(O)ccc3o2)cc1
- inhibition (INH) [1]: Not Active
- IC50 [2]: 55.1 nM
- Ratio IC50 [3]: > 181
